Assay results taken from BindingDB's records for doi:10.1021/acs.jmedchem.9b00963 (Hong Kong Polytechnic University, 2019).

Legend:
[1] = Inhibition of P-gp (unknown origin) expressed in human LCC6MDR cells assessed as reversal of paclitaxel resistance after 5 days by MTS/PMS assay
[2] = Inhibition of BCRP (unknown origin) transfected in HEK293/R2 cells assessed as reversal of topotecan resistance after 5 days by MTS/PMS assay
[3] = Inhibition of BCRP in human MCF7/MX100 cells assessed as reversal of topotecan resistance after 5 days by MTS/PMS assay

Row | SMILES | EC50 [1] [µM] | EC50 [2] [µM] | EC50 [3] [µM]
1 | O=c1cc(-c2ccc(OCCCc3cn(CCOCCOc4ccc(-c5cc(=O)c6ccccc6o5)cc4)nn3)cc2)oc2ccccc12 | 0.201 |  | 
2 | O=c1cc(-c2ccc(OCCOCCn3cc(CCCOc4ccc(-c5cc(=O)c6ccc(F)cc6o5)cc4)nn3)cc2)oc2ccccc12 | 0.155 | 0.0072 | 
3 | O=c1cc(-c2ccc(OCCOCCn3cc(COCCOc4ccc5c(=O)cc(-c6ccccc6)oc5c4)nn3)cc2)oc2ccccc12 | 0.96 | 0.303 | 0.235
4 | O=c1cc(-c2ccc(OCCOCCn3cc(CN(CCOc4ccc5c(=O)cc(-c6ccccc6)oc5c4)Cc4ccccc4)nn3)cc2)oc2ccccc12 | 0.63 | 0.086 | 0.205
5 | O=c1cc(-c2ccccc2)oc2cc(OCCN(Cc3ccccc3)Cc3cn(CCOCCOCCOc4ccc(-c5cc(=O)c6cc(F)ccc6o5)cc4)nn3)ccc12 | 0.334 | 0.027 | 0.02
6 | Cc1ccc2oc(-c3ccc(OCCOCCOCCn4cc(CCCOc5ccc(-c6cc(=O)c7ccc(F)cc7o6)cc5)nn4)cc3)cc(=O)c2c1 | 0.219 | 0.014 | 0.02
7 | O=c1cc(-c2ccc(OCCCc3cn(CCOCCOCCOc4ccc(-c5cc(=O)c6cc(F)ccc6o5)cc4)nn3)cc2)oc2cc(F)ccc12 | 0.161 | 0.0031 | 0.004
8 | Cc1ccc2oc(-c3ccc(OCCCCc4cn(CCOCCOc5ccc(-c6cc(=O)c7cc(F)ccc7o6)cc5)nn4)cc3)cc(=O)c2c1 |  | 0.015 | 0.064
9 | O=c1cc(-c2ccc(OCCCc3cn(CCOCCOc4ccc5c(=O)cc(-c6ccccc6)oc5c4)nn3)cc2)oc2cc(F)ccc12 | 0.069 | 0.0064 | 0.0079
10 | O=c1cc(-c2ccc(OCCOCCOCCn3cc(CCCOc4ccc(-c5cc(=O)c6ccc(F)cc6o5)cc4)nn3)cc2)oc2ccccc12 | 0.255 | 0.024 | 0.0074
11 | COC(=O)c1cccc(COc2c(-c3ccc(OCCOCCn4cc(CCCCOc5ccc6c(=O)cc(-c7ccccc7)oc6c5)nn4)cc3)oc3ccccc3c2=O)c1 | 0.325 | 0.0052 | 
12 | COC(=O)c1cccc(COc2c(-c3ccc(OCCOCCOCCn4cc(-c5cccc(-c6cn(CCOCCOCCOc7ccc(-c8oc9ccccc9c(=O)c8OCc8cccc(C(=O)OC)c8)cc7)nn6)c5)nn4)cc3)oc3ccccc3c2=O)c1 | > 1 | 0.0028 | 0.013
13 | COC(=O)c1cccc(COc2c(-c3ccc(OCCOCCOCCn4cc(COCCOc5ccc6c(=O)cc(-c7ccccc7)oc6c5)nn4)cc3)oc3ccccc3c2=O)c1 | 0.313 |  | 
14 | O=c1cc(-c2ccccc2)oc2cc(OCCCCc3cn(CCOCCOCCOc4ccc(-c5oc6ccccc6c(=O)c5OCc5ccccc5)cc4)nn3)ccc12 | 0.278 | 0.035 | 0.016
15 | O=c1cc(-c2ccccc2)oc2cc(OCCOCc3cn(CCOCCOCCOc4ccc(-c5cc(=O)c6cc(F)ccc6o5)cc4)nn3)ccc12 | 0.967 | 0.23 | 0.264
16 | O=c1cc(-c2ccccc2)oc2cc(OCCOCCOCCn3cc(CN(CCOc4ccc5c(=O)cc(-c6ccccc6)oc5c4)Cc4ccccc4)nn3)ccc12 | 0.403 | 0.054 | 0.058
17 | O=c1cc(-c2ccccc2)oc2cc(OCCOCCn3cc(CN(Cc4ccccc4)Cc4cn(CCOCCOc5ccc6c(=O)cc(-c7ccccc7)oc6c5)nn4)nn3)ccc12 | > 1 | 0.153 | 0.278
18 | COC(=O)c1cccc(COc2c(-c3ccc(OCCOCCOCCn4cc(CN(Cc5ccccc5)Cc5cn(CCOCCOCCOc6ccc(-c7oc8ccccc8c(=O)c7OCc7cccc(C(=O)OC)c7)cc6)nn5)nn4)cc3)oc3ccccc3c2=O)c1 | > 1 | 0.0033 | 0.0043
19 | O=c1cc(-c2ccccc2)oc2cc(OCCOCc3cn(CCOCCOc4ccc(-c5cc(=O)c6cc(F)ccc6o5)cc4)nn3)ccc12 | > 1 | 0.285 | 0.195
20 | O=c1cc(-c2ccccc2)oc2cc(OCCOCc3cn(CCOCCOc4ccc(-c5oc6ccccc6c(=O)c5OCc5ccccc5)cc4)nn3)ccc12 | 0.345 |  | 
21 | O=c1c(OCc2ccccc2)c(-c2ccc(OCCOCCOCCn3cc(CN(Cc4ccccc4)Cc4cn(CCOCCOCCOc5ccc(-c6oc7ccccc7c(=O)c6OCc6ccccc6)cc5)nn4)nn3)cc2)oc2ccccc12 | 0.56 | 0.036 | 0.026
22 | Cc1ccc2oc(-c3ccc(OCCOCCOCCn4cc(CN(CCOc5ccc6c(=O)cc(-c7ccccc7)oc6c5)Cc5ccccc5)nn4)cc3)cc(=O)c2c1 | 0.21 | 0.055 | 0.016
23 | Cc1ccc2oc(-c3ccc(OCCOCCOCCn4cc(CCCOc5ccc6c(=O)cc(-c7ccccc7)oc6c5)nn4)cc3)cc(=O)c2c1 | 0.35 | 0.035 | 0.185
24 | COC(=O)c1cccc(COc2c(-c3ccc(OCCOCCOCCn4cc(CN5CCN(Cc6cn(CCOCCOCCOc7ccc(-c8oc9ccccc9c(=O)c8OCc8cccc(C(=O)OC)c8)cc7)nn6)CC5)nn4)cc3)oc3ccccc3c2=O)c1 | > 1 | 0.031 | 0.04

Row | SMILES | EC50 [1] [µM] | EC50 [2] [µM] | EC50 [3] [µM]
25 | COC(=O)c1cccc(COc2c(-c3ccc(OCCOCCn4cc(CN(C)CCN(C)Cc5cn(CCOCCOc6ccc(-c7oc8ccccc8c(=O)c7OCc7cccc(C(=O)OC)c7)cc6)nn5)nn4)cc3)oc3ccccc3c2=O)c1 | > 1 | 0.133 | 0.084
26 | COC(=O)c1cccc(COc2c(-c3ccc(OCCOCCn4cc(CN5CCN(Cc6cn(CCOCCOc7ccc(-c8oc9ccccc9c(=O)c8OCc8cccc(C(=O)OC)c8)cc7)nn6)CC5)nn4)cc3)oc3ccccc3c2=O)c1 | 0.683 | 0.018 | 0.019
27 | COC(=O)c1cccc(COc2c(-c3ccc(OCCOCCn4cc(CN(Cc5ccncc5)Cc5cn(CCOCCOc6ccc(-c7oc8ccccc8c(=O)c7OCc7cccc(C(=O)OC)c7)cc6)nn5)nn4)cc3)oc3ccccc3c2=O)c1 | > 1 | 0.049 | 0.025
28 | COC(=O)c1cccc(COc2c(-c3ccc(OCCOCCn4cc(CN(Cc5cn(CCOCCOc6ccc(-c7oc8ccccc8c(=O)c7OCc7cccc(C(=O)OC)c7)cc6)nn5)c5ccccc5)nn4)cc3)oc3ccccc3c2=O)c1 | > 1 | 0.0068 | 0.0022
29 | COC(=O)c1cccc(COc2c(-c3ccc(OCCOCCOCCn4cc(-c5ccc(-c6cn(CCOCCOCCOc7ccc(-c8oc9ccccc9c(=O)c8OCc8cccc(C(=O)OC)c8)cc7)nn6)cc5)nn4)cc3)oc3ccccc3c2=O)c1 | > 1 | 0.0024 | 0.014
30 | O=c1cc(-c2ccc(OCCOCCOCCn3cc(CCCOc4ccc5c(=O)cc(-c6ccccc6)oc5c4)nn3)cc2)oc2ccccc12 | 0.384 | 0.052 | 0.203
31 | COC(=O)c1cccc(COc2c(-c3ccc(OCCOCCOCCn4cc(CCCOc5ccc(-c6cc(=O)c7ccc(F)cc7o6)cc5)nn4)cc3)oc3ccccc3c2=O)c1 | 0.246 | 0.002 | 0.0023
32 | Cc1ccc2oc(-c3ccc(OCCCCc4cn(CCOCCOCCOc5ccc(-c6cc(=O)c7ccccc7o6)cc5)nn4)cc3)cc(=O)c2c1 | > 1 | 0.285 | 0.16
33 | O=c1cc(-c2ccccc2)oc2cc(OCCCc3cn(CCOCCOCCOc4ccc(-c5oc6ccccc6c(=O)c5OCc5ccccc5)cc4)nn3)ccc12 | 0.259 | 0.06 | 0.078
34 | COC(=O)c1cccc(COc2c(-c3ccc(OCCOCCOCCn4cc(CCCOc5ccc6c(=O)cc(-c7ccccc7)oc6c5)nn4)cc3)oc3ccccc3c2=O)c1 | 0.414 | 0.0035 | 0.007
35 | O=c1cc(-c2ccc(OCCCc3cn(CCOCCOCCOc4ccc5c(=O)cc(-c6ccccc6)oc5c4)nn3)cc2)oc2cc(F)ccc12 | 0.089 | 0.028 | 0.027
36 | Cc1ccc2oc(-c3ccc(OCCCCc4cn(CCOCCOCCOc5ccc6c(=O)cc(-c7ccccc7)oc6c5)nn4)cc3)cc(=O)c2c1 |  |  | 0.151
37 | COC(=O)c1cccc(COc2c(-c3ccc(OCCOCCOCCn4cc(CCCCOc5ccc6c(=O)cc(-c7ccccc7)oc6c5)nn4)cc3)oc3ccccc3c2=O)c1 | 0.285 |  | 
38 | O=c1cc(-c2ccc(OCCOCCOCCn3cc(COCCOc4ccc5c(=O)cc(-c6ccccc6)oc5c4)nn3)cc2)oc2ccccc12 | 0.963 | 0.303 | 0.34
39 | COC(=O)c1cccc(COc2c(-c3ccc(OCCOCCn4cc(COCCOc5ccc6c(=O)cc(-c7ccccc7)oc6c5)nn4)cc3)oc3ccccc3c2=O)c1 | 0.437 |  | 0.018
40 | O=c1cc(-c2ccc(OCCOCCn3cc(CN(Cc4ccccc4)Cc4cn(CCOCCOc5ccc(-c6cc(=O)c7ccccc7o6)cc5)nn4)nn3)cc2)oc2ccccc12 | 0.67 |  | 0.205
41 | O=c1cc(-c2ccccc2)oc2cc(OCCN(Cc3ccccc3)Cc3cn(CCOCCOCCOc4ccc(-c5oc6ccccc6c(=O)c5OCc5ccccc5)cc4)nn3)ccc12 | 0.983 | 0.156 | 0.069
42 | O=c1cc(-c2ccccc2)oc2cc(OCCn3cc(CN(Cc4ccccc4)Cc4cn(CCOc5ccc6c(=O)cc(-c7ccccc7)oc6c5)nn4)nn3)ccc12 | > 1 | 0.243 | 0.485
43 | OCCOCCn1cc(CN(Cc2ccccc2)Cc2cn(CCOCCO)nn2)nn1 | > 1 | > 1 | > 1
44 | O=c1cc(-c2ccccc2)oc2cc(OCCN(Cc3ccccc3)Cc3cn(CCOc4ccc5c(=O)cc(-c6ccccc6)oc5c4)nn3)ccc12 | 0.897 | 0.19 | 0.28
45 | Cc1ccc2oc(-c3ccc(OCCOCCOCCn4cc(CN(Cc5ccccc5)Cc5cn(CCOCCOCCOc6ccc(-c7cc(=O)c8cc(C)ccc8o7)cc6)nn5)nn4)cc3)cc(=O)c2c1 | 0.763 |  | 0.046
46 | COC(=O)c1cccc(COc2c(-c3ccc(OCCOCCOCCn4cc(CCCCOc5ccc(-c6cc(=O)c7cc(C)ccc7o6)cc5)nn4)cc3)oc3ccccc3c2=O)c1 | 0.42 |  | 
47 | COC(=O)c1cccc(COc2c(-c3ccc(OCCOCCn4cc(CCCCOc5ccc(-c6cc(=O)c7cc(C)ccc7o6)cc5)nn4)cc3)oc3ccccc3c2=O)c1 | 0.43 |  | 
